Source: patent publication US20100111965A1, “COMBINATION THERAPY” (FUSION ANTIBODIES LIMITED, priority 2006, published 2010)
“And” between values parts separate entries of the source, which are not always exact repeats. Equal values may be shown once.

Assays:
HCT116 = test: RT-PCR of AREG RNA in HCT116 cells after chemotherapy; type: cell-based, human; conditions: 48 h after treatment, 7.5 μM
Protocol: FIG. 1B illustrates analysis of AREG and beta actin RNA expression in HCT116 +/+ with/without a 48 hour CPT11 treatment. RNA levels were analyzed following 35 cycles of PCR to determine relative differences in expression between treated and untreated samples;
(§1) FIG. 6 illustrates AREG upregulation following chemotherapeutic challenge in A) HT29, B) HCT116 and C) MDA-MB231 cells. Cells were treated with/without chemotherapy for 48 hours. RT-PCR was performed with 1 μg of total RNA using primer pairs specific for the human AREG gene or GAPDH. The PCR products were separated on 1.5% agarose gel electrophoresis and visualized by ethidium bromide staining.
Cells in a log phase of growth were seeded into T75 flask at ˜20% confluence and incubated overnight to allow adherence to the plate. […] Chemotherapy was substituted with saline in control flasks. After different time exposure to chemotherapy the cells were harvested, washed 3 times in PBS and total RNA was isolated using the RNA TAT-60 reagent according to the manufacturer instructions. […]
Semi quantitative RT-PCR was performed using a PTC 225 Gradient Cycler (MJ Research Incorporated. The PCR mixture, in a final volume of 25 μL, contains 12.5 μL of 2× Biomix (Bioline, UK), 2 μL of primers (10 μmol/L), 1 μL of cDNA and 9.5 μL of dH2O). […]

[1] = tested on: HCT116+/+ cells (In Vivo); test: Microarray analysis of EGF-family mRNA in HCT116 xenograft tumours after chemotherapy; design: species or system human; conditions: for EGF (Epidermal Growth factor) fold change, microarray: drug treated against untreated control
Protocol: 6-8 week old female SCID mice were implanted with 2×10^6 HCT116+/+ human colorectal adenocarcinoma cells into each flank. HCT116 cells in a log phase of growth were harvested, washed in PBS and resuspended in HBSS. They were mixed with equal volumes of matrigel to give a final concentration of 5×10^6 cells/ml. Mice were randomly separated into treatment groups on day 5 after implantation and treated with different doses of chemotherapy. […] All drugs were administered through a bolus injection. Animals were sacrificed at various time points and tumours were removed for analysis
Approximately 10 μg total RNA was isolated from tumour cells and was used as the starting material for preparation of probes. The microarray analysis was carried using an Affymetrix U133 plus 2.0 GeneChip®. Probes were prepared as per the manufacturers recommendations.
After RNA extraction, samples were reverse transcribed into cDNA which was then purified on a column prior to labelling. The probes were then amplified and labelled using Oligo(dT)-primed in vitro transcription generating high-yield, biotinylated targets from the 3′-end. […] For the next stage the fragmented cRNA was hybridised to the array for 16 hours at 45° C. Following this the array was washed and stained with streptavidin-phycoerythrin (SAPE) using a fluidics station and scanned using a GeneChip® Scanner 3000. Stained images were then analysed.
Initially the data was scaled using the Affymetrix® GCOS (Genechip® Operating System) software, to assess quality metrics. The data was then normalized against a control sample. After normalisation the data was filtered removing all genes where the noise level obscured signal and were fold change was […] 2-fold. Finally a confidence filter where the t-test p-value were used to filter the genes to derive lists of statistically robust data.
Each treatment type and timepoint was carried out in triplicate and statistics and filtering were applied to the whole data set from each condition.
A xenograft study was set up to examine the genetic response to 2 different chemotherapeutic drugs 24 and 48 hours after treatment. Each mouse was implanted with equal volumes of HCT116 cells and each condition was performed in triplicate.
RNA isolated from tumours in each of the 12 mice was subjected to microarray analysis to measure mRNA expression levels. Fold change values for drug treated against untreated control is presented.

[2] = tested on: MDA-MB231 breast carcinoma cell line; test: RT-PCR of AREG mRNA in MDA-MB231 cells after chemotherapy; type: cell-based, human; conditions: IC50 dose, 48 hours
Protocol: as §1
For Example 2, Total RNA was isolated from cells following the RNA STAT-60 manufacturer's protocol (Biogenesis, Poole, U.K.). RT-PCR was performed with 1 μg of total cell RNA using a Promega ImProm-II™ Reverse Transcription System (Promega, Southhampton, UK). PCR was performed using primer pairs specific for human AREG (Forward 5′-[…]-3′(SEQ ID No:19), Reverse 5′-[…]-3′ (SEQ ID No:20)), human HB-EGF (Forward 5′-[…]-3′(SEQ ID No:21), Reverse 5′-[…]-3′(SEQ ID No:22)), human GAPDH as a control (Forward 5′[…]-3′(SEQ ID No:23), Reverse 5′ […]-3′(SEQ ID NO:24)) and human Beta-actin as a control (Forward 5′-[…]-3′(SEQ ID No:25), Reverse 5′-[…]-3′(SEQ ID No:26)).
The PCR products were separated on 1.5% agarose gel and visualized by ethidium bromide staining.

H460 lung cancer cells = test: RT-PCR of AREG RNA in H460 lung cancer cells after chemotherapy; type: cell-based; conditions: 48 hour treatment
Protocol: FIG. 5 illustrates analysis of AREG and beta actin RNA expression in H460 lung cancer cells with/without either a 48 hour CPT11 treatment or 5-Fu treatment. RNA levels were analyzed following 35 cycle of PCR to determine relative differences in expression between treated and untreated samples.
(§2) Cells in a log phase of growth were seeded into T75 flask at ˜20% confluence and incubated overnight to allow adherence to the plate. […] Chemotherapy was substituted with saline in control flasks. After different time exposure to chemotherapy the cells were harvested, washed 3 times in PBS and total RNA was isolated using the RNA TAT-60 reagent according to the manufacturer instructions.
(§3) Reverse transcription was performed with 2.5 μg of RNA using a High Capacity cDNA Archive kit (Applied Biosystem) according to the instruction of the manufacturer.
(§4) Semi quantitative RT-PCR was performed using a PTC 225 Gradient Cycler (MJ Research Incorporated. The PCR mixture, in a final volume of 25 μL, contains 12.5 μL of 2× Biomix (Bioline, UK), 2 μL of primers (10 μmol/L), 1 μL of cDNA and 9.5 μL of dH2O). PCR conditions were initial denaturation step of 95 C for 10 minutes, followed by 35 cycles of 95° C. for 30 sec for denaturation; as annealing step 55° C. for 30 sec; and extension at 72° C. for 90 sec, with a final extension of 72° C. for 10 minutes. […]

RKO +/+ = test: Semi quantitative RT-PCR of AREG RNA in RKO cells after chemotherapy; type: cell-based, human; conditions: 48 h after treatment, 7.5 μM
Protocol: FIG. 1A illustrates analysis of AREG and beta actin RNA expression in RKO +/+ with/without either a 48 hour CPT11 treatment or 5-Fu treatment. RNA levels were analyzed following 35 cycle of PCR to determine relative differences in expression between treated and untreated samples;
as §2, §3, §4

[3] = HCT116+/+ xenograft, 70 mg/kg bolus, 24 h, vs untreated control
[4] = HCT116+/+ xenograft, 70 mg/kg bolus, 24 h, vs untreated control, 70 mg/kg
[5] = HCT116 xenograft, treated by 5-FU, time not stated

O=c1[nH]cc(F)c(=O)[nH]1 [5-FU, 5-Fluorouracil]
AREG RNA expression (RT-PCR) (HCT116): upregulation | EGF (Epidermal Growth factor) fold change, microarray ([1]; HCT116+/+ xenograft, 70 mg/kg bolus, 24 h): −2.4 fold | NRG3 fold change, microarray [1, 3]: −2.1 fold | NRG4 fold change, microarray [1, 3]: −1.1 fold | HB-EGF (Heparin-Binding EGF-like growth factor) fold change, microarray [1, 4]: 1.6 fold and 3.1 fold | TGF alpha (Transforming Growth factor alpha) fold change, microarray [1, 4]: 1.3 fold and 1.8 fold | EGF (Epidermal Growth factor) fold change, microarray ([1]; HCT116+/+ xenograft, 70 mg/kg bolus, 48 h): −3.8 fold | NRG4 fold change, microarray ([1]; HCT116+/+ xenograft, 70 mg/kg bolus, 48 h, vs untreated control): −1.8 fold | fold change values for AREG mRNA expression, treated against untreated controls ([1]; HCT116 xenograft, 70 mg/kg, after 48 hours): 2.1 fold | HB-EGF regulation in micro-array analysis [1, 5]: up-regulation | TGF regulation in micro-array analysis [1, 5]: up-regulation | AREG mRNA expression (RT-PCR) [2]: up-regulation | AREG RNA expression (RT-PCR, 35 cycles) (H460 lung cancer cells): enhanced expression of AREG | AREG RNA expression (RT-PCR) (RKO +/+): upregulation
